Target: human mGlu5a receptor (Homo sapiens (Human), UniProt P41594)
Test: Intracellular Ca2+ mobilization assay (mGlu5 PAM)
Type: cell-based
Settings: for EC50: HEK-293 cells stably transfected with human mGlu5a, L-glutamate added at EC20 (typically around 80 μM); for Emax: maximal response in % of the maximal stimulatory effect obtained with saturating concentrations of L-glutamate, read-out: Eff. (%)
Protocol: A monoclonal HEK-293 cell line stably transfected with a cDNA encoding for the human mGlu5a receptor was generated; for the work with mGlu5 Positive Allosteric Modulators (PAMs), a cell line with low receptor expression levels and low constitutive receptor activity was selected to allow the differentiation of agonistic versus PAM activity. Cells were cultured according to standard protocols (Freshney, 2000) in Dulbecco's Modified Eagle Medium with high glucose supplemented with 1 mM glutamine, 10% (vol/vol) heat-inactivated bovine calf serum, Penicillin/Streptomycin, […] hygromycin and 15 μg/ml blasticidin (all cell culture reagents and antibiotics from Invitrogen, Basel, Switzerland).
About 24 hrs before an experiment, 5×10^4 cells/well were seeded in poly-D-lysine coated, black/clear-bottomed 96-well plates. The cells were loaded with 2.5 μM Fluo-4AM in loading buffer (1×HBSS, 20 mM HEPES) for 1 hr at 37° C. and washed five times with loading buffer. The cells were transferred into a Functional Drug Screening System 7000 (Hamamatsu, Paris, France), and 11 half logarithmic serial dilutions of test compound at 37° C. were added and the cells were incubated for 10-30 min. with on-line recording of fluorescence. Following this pre-incubation step, the agonist L-glutamate was added to the cells at a concentration corresponding to EC20 (typically around 80 μM) with on-line recording of fluorescence; in order to account for day-to-day variations in the responsiveness of cells, the EC20 of glutamate was determined immediately ahead of each experiment by recording of a full dose-response curve of glutamate.
Responses were measured as peak increase in fluorescence minus basal (i.e. fluorescence without addition of L-glutamate), normalized to the maximal stimulatory effect obtained with saturating concentrations of L-glutamate. Graphs were plotted with the % maximal stimulatory using XLfit, a curve fitting program that iteratively plots the data using Levenburg Marquardt algorithm. The single site competition analysis equation used was y=A+((B−A)/(1+((x/C)D))), where y is the % maximal stimulatory effect, A is the minimum y, B is the maximum y, C is the EC50, x is the log 10 of the concentration of the competing compound and D is the slope of the curve (the Hill Coefficient). From these curves the EC50 (concentration at which half maximal stimulation was achieved), the Hill coefficient as well as the maximal response in % of the maximal stimulatory effect obtained with saturating concentrations of L-glutamate were calculated.
A depression of the signal observed after addition of the EC20 concentration of L-glutamate was indicative of an inhibitory activity of the test compound.

Chain of human mGlu5a receptor (P41594 other isoform, or with tags, fused parts or gaps): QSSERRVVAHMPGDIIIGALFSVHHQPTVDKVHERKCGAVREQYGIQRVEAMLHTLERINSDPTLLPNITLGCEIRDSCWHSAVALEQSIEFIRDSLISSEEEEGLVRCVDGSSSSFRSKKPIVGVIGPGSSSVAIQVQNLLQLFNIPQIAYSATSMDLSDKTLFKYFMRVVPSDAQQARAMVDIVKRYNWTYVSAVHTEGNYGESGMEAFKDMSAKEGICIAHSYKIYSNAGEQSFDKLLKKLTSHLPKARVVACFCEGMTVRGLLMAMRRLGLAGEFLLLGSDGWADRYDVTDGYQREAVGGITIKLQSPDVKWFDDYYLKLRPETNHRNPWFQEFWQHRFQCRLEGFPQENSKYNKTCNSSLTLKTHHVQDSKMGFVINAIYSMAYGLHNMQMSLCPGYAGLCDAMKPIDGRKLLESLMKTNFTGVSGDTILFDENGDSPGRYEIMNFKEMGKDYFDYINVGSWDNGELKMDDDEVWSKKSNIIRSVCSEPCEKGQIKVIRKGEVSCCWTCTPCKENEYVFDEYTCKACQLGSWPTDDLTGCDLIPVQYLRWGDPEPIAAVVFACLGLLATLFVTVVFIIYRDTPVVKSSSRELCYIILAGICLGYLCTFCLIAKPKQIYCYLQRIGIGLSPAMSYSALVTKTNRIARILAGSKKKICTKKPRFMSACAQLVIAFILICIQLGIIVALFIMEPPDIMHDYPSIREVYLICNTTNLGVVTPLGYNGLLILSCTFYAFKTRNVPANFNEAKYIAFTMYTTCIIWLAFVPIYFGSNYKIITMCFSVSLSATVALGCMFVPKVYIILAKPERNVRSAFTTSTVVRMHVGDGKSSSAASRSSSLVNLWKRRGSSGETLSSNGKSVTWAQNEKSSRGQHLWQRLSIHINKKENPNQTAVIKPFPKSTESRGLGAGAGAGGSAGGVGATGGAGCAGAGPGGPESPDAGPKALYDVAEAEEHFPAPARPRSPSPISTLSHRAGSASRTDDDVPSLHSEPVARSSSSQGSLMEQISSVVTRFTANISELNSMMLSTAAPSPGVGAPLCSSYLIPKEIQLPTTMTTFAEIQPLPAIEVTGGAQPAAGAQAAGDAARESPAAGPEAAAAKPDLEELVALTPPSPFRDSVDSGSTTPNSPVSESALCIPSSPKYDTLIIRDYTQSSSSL

| SMILES | EC50 [nM] | Emax [%] |
| --- | --- | --- |
| CN1C(=O)C(c2ccc(C#Cc3ccccc3)cn2)CC1(C)C (racemic) [Example 1, (RS)-1,5,5-Trimethyl-3-(5-(phenylethynyl)pyridin-2-yl)pyrrolidin-2-one] | 60 | 111 |
| CN1C(=O)C(c2ccc(C#Cc3cccnc3)cn2)CC1(C)C (racemic) [Example 2, (RS)-1,5,5-Trimethyl-3-(5-(pyridin-3-ylethynyl)pyridin-2-yl)pyrrolidin-2-one] | 981 | 107 |
| CN1C(=O)C(c2ccc(C#Cc3cccc(Cl)c3)cn2)CC1(C)C (racemic) [Example 3, (RS)-3-(5-((3-chlorophenyl)ethynyl)pyridin-2-yl)-1,5,5-trimethylpyrrolidin-2-one] | 38 | 81 |
| CN1C(=O)C(c2ccc(C#Cc3cccc(F)c3)cn2)CC1(C)C (racemic) [Example 4, (RS)-3-(5-((3-Fluorophenyl)ethynyl)pyridin-2-yl)-1,5,5-trimethylpyrrolidin-2-one] | 61 | 103 |
| CN1C(=O)C(C(=O)OCc2ccccc2)(c2ncc(C#Cc3ccccc3)cn2)CC1(C)C (racemic) [Example 5, (RS)-Benzyl 1,5,5-trimethyl-2-oxo-3-(5-(phenylethynyl)pyrimidin-2-yl)pyrrolidine-3-carboxylate] | 528 | 48 |
| CN1C(=O)C(c2ncc(C#Cc3ccccc3)cn2)CC1(C)C (racemic) [Example 6, (RS)-1,5,5-Trimethyl-3-(5-(phenylethynyl)pyrimidin-2-yl)pyrrolidin-2-one] | 130 | 90 |
| CN1C(=O)C(c2ncc(C#Cc3cccc(F)c3)cn2)CC1(C)C (racemic) [Example 7, (RS)-3-(5-((3-fluorophenyl)ethynyl)pyrimidin-2-yl)-1,5,5-trimethylpyrrolidin-2-one] | 137 | 85 |
| CN1C(=O)C(c2ncc(C#Cc3ccc(F)cc3)cn2)CC1(C)C (racemic) [Example 8, (RS)-3-(5-((4-Fluorophenyl)ethynyl)pyrimidin-2-yl)-1,5,5-trimethylpyrrolidin-2-one] | 390 | 105 |
| CN1C(=O)C(c2ccc(C#Cc3cccc(F)c3)nn2)CC1(C)C (racemic) [Example 9, (RS)-3-(6-((3-Fluorophenyl)ethynyl)pyridazin-3-yl)-1,5,5-trimethylpyrrolidin-2-one] | 34 | 88 |
| CN1C(=O)C(c2ccc(C#Cc3ccccc3)nn2)CC1(C)C (racemic) [Example 11, (RS)-1,5,5-trimethyl-3-(6-(phenylethynyl)pyridazin-3-yl)pyrrolidin-2-one] | 58 | 115 |
| CN1C(=O)C(c2ccc(C#Cc3ccccc3)cn2)CCC1(C)C (racemic) [Example 12, (RS)-1,6,6-Trimethyl-3-(5-(phenylethynyl)pyridin-2-yl)piperidin-2-one] | 113 | 103 |
| CN1C(=O)C(c2ccc(C#Cc3cccc(F)c3)cn2)CCC1(C)C (racemic) [Example 13, (RS)-3-(5-((3-Fluorophenyl)ethynyl)pyridin-2-yl)-1,6,6-trimethylpiperidin-2-one] | 98 | 90 |
| CN1C(=O)C(c2ccc(C#Cc3ccc(F)cc3)cn2)CCC1(C)C (racemic) [Example 14, (RS)-3-(5-((4-Fluorophenyl)ethynyl)pyridin-2-yl)-1,6,6-trimethylpiperidin-2-one] | 212 | 96 |
| CN1C(=O)C(c2ncc(C#Cc3ccccc3)cn2)CCC1(C)C (racemic) [Example 15, (RS)-1,6,6-Trimethyl-3-(5-(phenylethynyl)pyrimidin-2-yl)piperidin-2-one] | 179 | 91 |
| CN1C(=O)C(c2ncc(C#Cc3ccc(F)cc3)cn2)CCC1(C)C (racemic) [Example 16, (RS)-3-(5-((4-Fluorophenyl)ethynyl)pyrimidin-2-yl)-1,6,6-trimethylpiperidin-2-one] | 573 | 96 |
| CN1C(=O)C(c2ncc(C#Cc3cccc(F)c3)cn2)CCC1(C)C (racemic) [Example 17, (RS)-3-(5-((3-fluorophenyl)ethynyl)pyrimidin-2-yl)-1,6,6-trimethylpiperidin-2-one] | 132 | 80 |
| CN1C(=O)C(O)(c2ccc(C#Cc3ccccc3)cn2)CC1(C)C (racemic) [Example 18, (RS)-3-Hydroxy-1,5,5-trimethyl-3-(5-(phenylethynyl)pyridin-2-yl)pyrrolidin-2-one] | 414 | 126 |
| COC1(c2ccc(C#Cc3ccccc3)cn2)CC(C)(C)N(C)C1=O (racemic) [Example 19, (RS)-3-Methoxy-1,5,5-trimethyl-3-(5-(phenylethynyl)pyridin-2-yl)pyrrolidin-2-one] | 96 | 108 |
| CN1C(=O)C(C)(c2ccc(C#Cc3ccccc3)cn2)CC1(C)C (racemic) [Example 20, (RS)-1,3,5,5-Tetramethyl-3-(5-(phenylethynyl)pyridin-2-yl)pyrrolidin-2-one] | 90 | 109 |
| CN1C(=O)C(c2ncc(C#Cc3cccc(F)c3)cc2F)CC1(C)C (racemic) [Example 21, (RS)-3-(3-fluoro-5-((3-fluorophenyl)ethynyl)pyridin-2-yl)-1,5,5-trimethylpyrrolidin-2-one] | 188 | 91 |
| CN1CCCCC(c2ccc(C#Cc3ccccc3)cn2)C1=O (racemic) [Example 22, (RS)-1-Methyl-3-(5-phenylethynyl-pyridin-2-yl)-azepan-2-one] | 59 | 59 |
| CN1CCCCC(c2ccc(C#Cc3ccc(F)cc3)cn2)C1=O (racemic) [Example 23, (RS)-3-[5-(4-Fluoro-phenylethynyl)-pyridin-2-yl]-1-methyl-azepan-2-one] | 90 | 61 |
| CN1CCCCC(c2ccc(C#Cc3cccc(F)c3)cn2)C1=O (racemic) [Example 24, (RS)-3-[5-(3-Fluoro-phenylethynyl)-pyridin-2-yl]-1-methyl-azepan-2-one] | 39 | 69 |
| CN1C(=O)[C@@H](c2ccc(C#Cc3ccccc3)cn2)[C@@H]2CCC[C@@H]21 (racemic) [Example 27, (3RS,3aSR,6aSR)-1-Methyl-3-(5-phenylethynyl-pyridin-2-yl)-hexahydro-cyclopenta[b]pyrrol-2-one] | 47 | 53 |
| CN1C(=O)[C@@H](c2ccc(C#Cc3ccc(F)cc3)cn2)[C@@H]2CCC[C@@H]21 (racemic) [Example 29, (3RS,3aSR,6aSR)-3-[5-(4-Fluoro-phenylethynyl)-pyridin-2-yl]-1-methyl-hexahydro-cyclopenta[b]pyrrol-2-one] | 78 | 53 |
| CN1C(=O)[C@@H](c2ccc(C#Cc3cccc(F)c3)cn2)[C@@H]2CCC[C@@H]21 (racemic) [Example 30, (3RS,3aSR,6aSR)-3-[5-(3-Fluoro-phenylethynyl)-pyridin-2-yl]-1-methyl-hexahydro-cyclopenta[b]pyrrol-2-one] | 33 | 57 |
| CN1C(=O)[C@@H](c2ncc(C#Cc3ccccc3)cn2)[C@@H]2CCC[C@@H]21 (racemic) [Example 33, (3RS,3aSR,6aSR)-1-Methyl-3-(5-phenylethynyl-pyrimidin-2-yl)-hexahydro-cyclopenta[b]pyrrol-2-one] | 52 | 52 |
| CN1C(=O)[C@@H](c2ccc(C#Cc3ccccc3)cn2)[C@@H]2CCCC[C@@H]21 (racemic) [Example 34, (3RS,6SR,7SR)-1-Methyl-3-(5-phenylethynyl-pyridin-2-yl)-octahydro-indol-2-one] | 185 | 82 |
| CN1C(=O)[C@H](c2ccc(C#Cc3ccccc3)cn2)[C@@H]2CCCC[C@@H]21 (racemic) [Example 35, (3SR,6SR,7SR)-1-Methyl-3-(5-phenylethynyl-pyridin-2-yl)-octahydro-indol-2-one] | 101 | 60 |
| CN1C(=O)[C@@H](c2ccc(C#Cc3cccc(F)c3)cn2)[C@@H]2CCCC[C@@H]21 (racemic) [Example 38, (3RS,6SR,7SR)-3-[5-(3-Fluoro-phenylethynyl)-pyridin-2-yl]-1-methyl-octahydro-indol-2-one] | 69 | 60 |
